{
  "source": "patent US7192950B2",
  "about": "“Benzazepines and related heterocyclic derivatives which are useful as orexin receptor antagonists” (Actelion Pharmaceuticals, Ltd., priority 2000, dated 2007)",
  "key": {"[1]": {"target": "T1, human orexin-1 receptor (Homo sapiens, UniProt O43613)", "T1 construct": "expressed in transfected cells; host or cells: CHO cells (G418 selection)", "T1 sequence (O43613 1-425)": "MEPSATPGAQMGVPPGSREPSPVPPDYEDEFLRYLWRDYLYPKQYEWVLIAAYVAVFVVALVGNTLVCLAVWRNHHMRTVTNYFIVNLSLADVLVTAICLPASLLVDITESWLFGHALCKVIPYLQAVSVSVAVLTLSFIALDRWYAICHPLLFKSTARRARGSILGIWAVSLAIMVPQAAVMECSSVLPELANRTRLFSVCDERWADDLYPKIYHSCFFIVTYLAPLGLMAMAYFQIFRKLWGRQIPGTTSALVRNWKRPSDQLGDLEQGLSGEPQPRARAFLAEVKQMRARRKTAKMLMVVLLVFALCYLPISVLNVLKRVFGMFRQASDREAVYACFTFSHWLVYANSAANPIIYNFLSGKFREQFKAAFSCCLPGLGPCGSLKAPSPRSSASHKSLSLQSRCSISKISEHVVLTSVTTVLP", "test": "Intracellular calcium measurements (FLIPR), OX1 receptor antagonist activity", "type": "cell-based", "conditions": "CHO cells expressing human orexin-1 receptor; 10 nM orexin-A as agonist; fluo-3 calcium signal", "procedure": "(§1) The OX1 and OX2 receptor antagonist activities of the compounds of general formula (I) were determined in accordance with the following experimental method.\n(§2) Intracellular Calcium Measurements\n(§3) Chinese hamster ovary (CHO) cells expressing the human orexin-1 receptor and the human orexin-2 receptor, respectively, were grown in culture medium (Ham F-12 with L Glutamine) containing 300 μg/ml G418, 100 U/ml penicillin, 100 μg/ml streptomycin and 10% inactivated foetal calf serum (FCS).\n(§4) The cells were seeded at 80'000 cells/well into 96-well black clear bottom sterile plates (Costar) which had been precoated with 1% gelatine in Hanks' Balanced Salt Solution (HBSS). All reagents were from Gibco BRL.\n(§5) The seeded plates were incubated overnight at 37° C. in 5% CO2.\n(§6) Human orexin-A as an agonist was prepared as 1 mM stock solution in methanol:water (1:1), diluted in HBSS containing 0.1% BSA and 2 mM HEPES for use in the assay at a final concentration of 10 nM.\n(§7) Antagonists were prepared as 10 mM stock solution in DMSO, then diluted in 96-well plates, first in DMSO, then in HBSS containing 0.1% bovine serum albumin (BSA) and 2 mM HEPES.\n(§8) On the day of the assay, 100 μl of loading medium (HBSS containing 1% FCS, 2 mM HEPES, 5 mM probenecid (Sigma) and 3 μM of the fluorescent calcium indicator fluo-3 AM (1 mM stock solution in DMSO with 10% pluronic acid Molecular Probes)) was added to each well.\n(§9) The 96-well plates were incubated for 60 min at 37° C. in 5% CO2. The loading solution was then aspirated and cells were washed 3 times with 200 μl HBSS containing 2.5 mM probenecid, 0.1% BSA, 2 mM HEPES. 100 μl of that same buffer was left in each well.\n(§10) Within the Fluorescent Imaging Plate Reader (FLIPR, Molecular Devices), antagonists were added to the plate in a volume of 50 μl, incubated for 20 min and finally 100 μl of agonist was added. Fluorescence was measured for each well at 1 second intervals, and the height of each fluorescence peak was compared to the height of the fluorescence peak induced by 10 nM orexin-A with buffer in place of antagonist. For each antagonist; IC50 values (the concentration of compound needed to inhibit 50% of the agonistic response) were determined."}, "[2]": {"target": "T2, human orexin-2 receptor (Homo sapiens, UniProt O43614)", "T2 construct": "expressed in transfected cells; host or cells: CHO cells (G418 selection)", "T2 sequence (O43614 1-444)": "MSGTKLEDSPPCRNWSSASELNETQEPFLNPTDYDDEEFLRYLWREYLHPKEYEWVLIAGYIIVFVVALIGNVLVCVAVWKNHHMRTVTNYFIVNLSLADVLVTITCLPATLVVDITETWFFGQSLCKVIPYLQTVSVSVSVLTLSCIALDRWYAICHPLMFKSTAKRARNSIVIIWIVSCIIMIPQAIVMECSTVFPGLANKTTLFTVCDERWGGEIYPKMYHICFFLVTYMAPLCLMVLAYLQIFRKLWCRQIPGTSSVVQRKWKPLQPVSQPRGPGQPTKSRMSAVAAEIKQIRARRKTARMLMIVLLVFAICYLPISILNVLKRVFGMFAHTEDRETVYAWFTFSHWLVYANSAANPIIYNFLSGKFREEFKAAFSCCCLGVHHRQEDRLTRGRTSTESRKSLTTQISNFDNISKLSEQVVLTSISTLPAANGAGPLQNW", "test": "Intracellular calcium measurements (FLIPR), OX2 receptor antagonist activity", "type": "cell-based", "conditions": "CHO cells expressing human orexin-2 receptor; 10 nM orexin-A as agonist; fluo-3 calcium signal", "procedure": "as §1, §2, §3, §4, §5, §6, §7, §8, §9, §10"}},
  "data": [
    {"smiles": "COc1ccc(CC2c3cc(OCC(F)F)c(OC)cc3CCCN2CC(=O)NC2CCc3ccccc32)cc1OC", "note": "(centres unmarked) [Example 69, 2-[8-(2,2-Difluoro-ethoxy)-1-(3,4-dimethoxy-benzyl)-7-methoxy-1,3,4,5-tetrahydro-benzo[c]azepin-2-yl]-N-indan-1-yl-acetamide]", "values": [
      {"measurement": "IC50", "setting": "[1]", "value": 9, "unit": "nM"},
      {"measurement": "IC50", "setting": "[2]", "value": 349, "unit": "nM"}
    ]},
    {"smiles": "COc1ccc(CC2c3cc(OC)c(OC)cc3CCCN2C(C(=O)NCc2nc3ccccc3[nH]2)c2ccccc2)cc1OC", "note": "(centres unmarked) [Example 35, N-(1H-Benzoimidazol-2-ylmethyl)-2-[1-(3,4-dimethoxy-benzyl)-7,8-dimethoxy-1,3,4,5-tetrahydro-benzo[c]azepin-2-yl]-2-phenyl-acetamide]", "values": [
      {"measurement": "IC50", "setting": "[1]", "value": 32, "unit": "nM"},
      {"measurement": "IC50", "setting": "[2]", "value": 7040, "unit": "nM"}
    ]},
    {"smiles": "COc1ccc(CC2c3cc(OC)c(OC)cc3CCCN2C(C(=O)NCc2ccco2)c2ccccc2)cc1OC", "note": "(centres unmarked) [Example 25, 2-[1-(3,4-Dimethoxy-benzyl)-7,8-dimethoxy-1,3,4,5-tetrahydro-benzo[c]azepin-2-yl]-N-furan-2-ylmethyl-2-phenyl-acetamide]", "values": [
      {"measurement": "IC50", "setting": "[1]", "value": 41, "unit": "nM"},
      {"measurement": "IC50", "setting": "[2]", "value": 241, "unit": "nM"}
    ]},
    {"smiles": "COc1ccc(CC2c3cc(OC(C)C)c(OC)cc3CCCN2CC(=O)NC2CCc3ccccc32)cc1OC", "note": "(centres unmarked) [Example 68, 2-[1-(3,4-Dimethoxy-benzyl)-8-isopropoxy-7-methoxy-1,3,4,5-tetrahydro-benzo[c]azepin-2-yl]-N-indan-1-yl-acetamide]", "values": [
      {"measurement": "IC50", "setting": "[1]", "value": 12, "unit": "nM"},
      {"measurement": "IC50", "setting": "[2]", "value": 174, "unit": "nM"}
    ]},
    {"smiles": "COc1ccc(CC2c3cc(OC)c(OC)cc3CCCN2C(C(=O)NC2Cc3ccccc3C2)c2ccccc2)cc1OC", "note": "(centres unmarked) [Example 20, 2-[1-(3,4-Dimethoxy-benzyl)-7,8-dimethoxy-1,3,4,5-tetrahydro-benzo[c]azepin-2-yl]-N-indan-2-yl-2-phenyl-acetamide]", "values": [
      {"measurement": "IC50", "setting": "[1]", "value": 23, "unit": "nM"},
      {"measurement": "IC50", "setting": "[2]", "value": 231, "unit": "nM"}
    ]},
    {"smiles": "COc1ccc(CC2c3cc(OC)c(OC)cc3CCCN2C(C(=O)NCc2ccc3c(c2)OCO3)c2ccccc2)cc1OC", "note": "(centres unmarked) [Example 23, N-Benzo[1,3]dioxol-5-ylmethyl-2-[1-(3,4-dimethoxy-benzyl)-7,8-dimethoxy-1,3,4,5-tetrahydro-benzo[c]azepin-2-yl]-2-phenyl-acetamide]", "values": [
      {"measurement": "IC50", "setting": "[1]", "value": 21, "unit": "nM"},
      {"measurement": "IC50", "setting": "[2]", "value": 189, "unit": "nM"}
    ]},
    {"smiles": "COc1ccc(CC2c3cc(OC)c(OC)cc3CCCN2CC(=O)NC2CCc3ccccc32)cc1OC", "note": "(centres unmarked) [Example 9, 2-[1-(3,4-Dimethoxy-benzyl)-7,8-dimethoxy-1,3,4,5-tetrahydro-benzo[c]azepin-2-yl]-N-indan-1-yl-acetamide]", "values": [
      {"measurement": "IC50", "setting": "[1]", "value": 23, "unit": "nM"},
      {"measurement": "IC50", "setting": "[2]", "value": 1240, "unit": "nM"}
    ]},
    {"smiles": "COc1ccc(CC2c3cc(OC)c(OC)cc3CCCN2CC(=O)NC2Cc3ccccc3C2)cc1OC", "note": "(centres unmarked) [Example 3, 2-[1-(3,4-Dimethoxy-benzyl)-7,8-dimethoxy-1,3,4,5-tetrahydro-benzo[c]azepin-2-yl]-N-indan-2-yl-acetamide]", "values": [
      {"measurement": "IC50", "setting": "[1]", "value": 99, "unit": "nM"},
      {"measurement": "IC50", "setting": "[2]", "value": "> 10000", "unit": "nM"}
    ]},
    {"smiles": "COc1ccc(CC2c3cc(OC)c(OC)cc3OCCN2CC(=O)NC2CCc3ccccc32)cc1OC", "note": "(racemic) [Example 5, 2-[5-(3,4-Dimethoxy-benzyl)-7,8-dimethoxy-2,3-dihydro-5H-benzo[f][1,4]oxazepin-4-yl]-N-indan-1-yl-acetamide]", "values": [
      {"measurement": "IC50", "setting": "[1]", "value": 64, "unit": "nM"},
      {"measurement": "IC50", "setting": "[2]", "value": 7900, "unit": "nM"}
    ]},
    {"smiles": "COC(=O)CCNC(=O)C(c1ccccc1)N1CCCc2cc(OC)c(OC)cc2C1Cc1ccc(OC)c(OC)c1", "note": "(centres unmarked) [Example 34, 3-{2-[1-(3,4-Dimethoxy-benzyl)-7,8-dimethoxy-1,3,4,5-tetrahydro-benzo[c]azepin-2-yl]-2-phenyl-acetylamino}-propionic acid methyl ester]", "values": [
      {"measurement": "IC50", "setting": "[1]", "value": 41, "unit": "nM"},
      {"measurement": "IC50", "setting": "[2]", "value": 9190, "unit": "nM"}
    ]}
  ]
}
